Reference: article PMC8871760, “Assessment of Five Pesticides as Endocrine-Disrupting Chemicals: Effects on Estrogen Receptors and Aromatase” (International Journal of Environmental Research and Public …, 2022)

Biological target: T1, recombinant form of human aromatase (Homo sapiens, UniProt P11511)
T1 construct: gene CYP19A1; purified recombinant; assayed with equimolar human CPR; with NADPH--cytochrome P450 reductase
T1 sequence (P11511 1-503): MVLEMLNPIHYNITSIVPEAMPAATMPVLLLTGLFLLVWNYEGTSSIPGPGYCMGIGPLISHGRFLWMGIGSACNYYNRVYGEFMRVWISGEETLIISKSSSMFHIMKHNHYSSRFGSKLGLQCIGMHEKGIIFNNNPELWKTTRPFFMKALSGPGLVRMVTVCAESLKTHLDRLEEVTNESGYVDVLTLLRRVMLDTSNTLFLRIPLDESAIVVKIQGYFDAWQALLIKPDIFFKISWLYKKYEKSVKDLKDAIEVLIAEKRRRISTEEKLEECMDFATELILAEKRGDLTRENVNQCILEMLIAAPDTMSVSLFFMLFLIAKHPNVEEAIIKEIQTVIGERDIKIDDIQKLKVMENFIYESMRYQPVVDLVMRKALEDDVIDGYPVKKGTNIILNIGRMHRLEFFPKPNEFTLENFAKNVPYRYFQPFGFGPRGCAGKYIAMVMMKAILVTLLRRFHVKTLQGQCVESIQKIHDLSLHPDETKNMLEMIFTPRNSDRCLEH
T1 sequence (P16435 2-677 partner): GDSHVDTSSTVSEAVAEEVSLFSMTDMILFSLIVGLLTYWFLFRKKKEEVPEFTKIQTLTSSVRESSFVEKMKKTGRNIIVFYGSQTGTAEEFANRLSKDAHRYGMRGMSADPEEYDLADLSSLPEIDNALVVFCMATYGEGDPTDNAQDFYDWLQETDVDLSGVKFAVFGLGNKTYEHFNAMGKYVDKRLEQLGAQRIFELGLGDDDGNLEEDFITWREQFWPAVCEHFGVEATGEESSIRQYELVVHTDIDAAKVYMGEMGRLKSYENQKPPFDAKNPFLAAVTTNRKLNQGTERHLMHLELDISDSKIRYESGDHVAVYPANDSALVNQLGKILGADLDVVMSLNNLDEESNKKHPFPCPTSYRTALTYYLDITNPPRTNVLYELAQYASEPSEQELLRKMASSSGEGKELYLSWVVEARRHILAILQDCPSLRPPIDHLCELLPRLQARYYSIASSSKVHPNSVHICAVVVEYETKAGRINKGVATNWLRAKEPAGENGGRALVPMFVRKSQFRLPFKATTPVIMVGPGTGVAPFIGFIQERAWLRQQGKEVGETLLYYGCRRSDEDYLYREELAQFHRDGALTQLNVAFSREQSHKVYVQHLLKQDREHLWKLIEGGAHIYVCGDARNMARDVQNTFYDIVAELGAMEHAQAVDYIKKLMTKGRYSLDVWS
Experiment: estrone ELISA of aromatase reaction
Assay type: biochemical
Details: read-out: Relative Activity (% of C+) / 5 × 10^-6 M
Description: estrone ELISA of aromatase reaction on recombinant form of human aromatase

SMILES: CN/C(=N\[N+](=O)[O-])NCc1cnc(Cl)s1 [Clothianidin]
- activity at 5 µM: 97.9 ± 5.2%

SMILES: CC(C)Oc1cc(-n2nc(C(C)(C)C)oc2=O)c(Cl)cc1Cl [Oxadiazon]
- activity at 5 µM: 101 ± 16.7%

SMILES: CNC(=O)Oc1cc(C)c(SC)c(C)c1 [Methiocarb]
- activity at 5 µM: 90.9 ± 5.4%

SMILES: C/C(=N\C#N)N(C)Cc1ccc(Cl)nc1 [Acetamiprid]
- activity at 5 µM: 87.5 ± 17.6%

SMILES: CN1COCN(Cc2cnc(Cl)s2)C1=N[N+](=O)[O-] [Thiamethoxam]
- activity at 5 µM: 95.6 ± 17.1%
